Measurements taken from the NIST ThermoML archive (doi:10.1021/je800579j).
± gives the expanded uncertainty stated by the source.

Assay: xn = mol fraction of the nth substance listed
Conditions: Liquid, Pycnometric method

Cc1ccccc1C [1,2-dimethylbenzene] + C1COCCO1
mass density [kg/m3]
Conditions | 288.15 K | 293.15 K | 298.15 K | 303.15 K | 308.15 K | 313.15 K | 318.15 K
x2 = 0 | 884.09 ± 0.67 | 879.83 ± 0.66 | 875.57 ± 0.67 | 871.31 ± 0.67 | 867.05 ± 0.68 | 862.79 ± 0.68 | 858.53 ± 0.69
x2 = 0.0672 | 891.2 ± 0.7 | 886.85 ± 0.67 | 882.5 ± 0.68 | 878.15 ± 0.68 | 873.8 ± 0.69 | 869.45 ± 0.7 | 865.1 ± 0.69
x2 = 0.1391 | 899.18 ± 0.71 | 894.73 ± 0.69 | 890.29 ± 0.69 | 885.85 ± 0.7 | 881.41 ± 0.7 | 876.97 ± 0.71 | 872.53 ± 0.7
x2 = 0.2103 | 907.48 ± 0.73 | 902.95 ± 0.7 | 898.42 ± 0.7 | 893.89 ± 0.71 | 889.36 ± 0.72 | 884.83 ± 0.72 | 880.3 ± 0.71
x2 = 0.2853 | 916.69 ± 0.74 | 912.06 ± 0.71 | 907.43 ± 0.72 | 902.8 ± 0.73 | 898.17 ± 0.73 | 893.55 ± 0.74 | 888.93 ± 0.72
x2 = 0.3543 | 925.67 ± 0.76 | 920.95 ± 0.73 | 916.23 ± 0.73 | 911.51 ± 0.74 | 906.79 ± 0.74 | 902.08 ± 0.75 | 897.37 ± 0.73
x2 = 0.4293 | 936 ± 0.78 | 931.18 ± 0.74 | 926.36 ± 0.75 | 921.55 ± 0.75 | 916.74 ± 0.76 | 911.93 ± 0.76 | 907.12 ± 0.74
x2 = 0.5092 | 947.69 ± 0.8 | 942.77 ± 0.76 | 937.85 ± 0.77 | 932.93 ± 0.77 | 928.02 ± 0.77 | 923.11 ± 0.78 | 918.2 ± 0.76
x2 = 0.581 | 958.89 ± 0.81 | 953.86 ± 0.78 | 948.83 ± 0.78 | 943.81 ± 0.78 | 938.79 ± 0.79 | 933.77 ± 0.8 | 928.75 ± 0.77
x2 = 0.6518 | 970.57 ± 0.83 | 965.44 ± 0.79 | 960.31 ± 0.79 | 955.19 ± 0.8 | 950.07 ± 0.8 | 944.95 ± 0.81 | 939.83 ± 0.79
x2 = 0.7248 | 983.38 ± 0.84 | 978.14 ± 0.81 | 972.9 ± 0.81 | 967.66 ± 0.82 | 962.43 ± 0.82 | 957.2 ± 0.83 | 951.97 ± 0.8
x2 = 0.7888 | 995.25 ± 0.86 | 989.91 ± 0.82 | 984.57 ± 0.83 | 979.23 ± 0.83 | 973.9 ± 0.83 | 968.57 ± 0.84 | 963.24 ± 0.82
x2 = 0.8595 | 1009.11 ± 0.88 | 1003.66 ± 0.84 | 998.21 ± 0.84 | 992.77 ± 0.85 | 987.33 ± 0.85 | 981.89 ± 0.86 | 976.45 ± 0.83
x2 = 0.9298 | 1023.75 ± 0.9 | 1018.19 ± 0.85 | 1012.63 ± 0.86 | 1007.08 ± 0.86 | 1001.53 ± 0.87 | 995.99 ± 0.87 | 990.45 ± 0.84

C1COCCO1 [1,4-dioxane] + c1ccccc1
mass density [kg/m3]
Conditions | 288.15 K | 293.15 K | 298.15 K | 303.15 K | 308.15 K | 313.15 K | 318.15 K
x1 = 0.0713 | 895.16 ± 0.81 | 889.77 ± 0.81 | 884.38 ± 0.81 | 878.99 ± 0.82 | 873.6 ± 0.82 | 868.22 ± 0.82 | 862.84 ± 0.83
x1 = 0.1403 | 905.71 ± 0.82 | 900.28 ± 0.81 | 894.85 ± 0.82 | 889.42 ± 0.82 | 883.99 ± 0.83 | 878.58 ± 0.83 | 873.17 ± 0.83
x1 = 0.2123 | 916.74 ± 0.83 | 911.28 ± 0.82 | 905.82 ± 0.82 | 900.36 ± 0.83 | 894.9 ± 0.83 | 889.45 ± 0.84 | 884 ± 0.84
x1 = 0.2809 | 927.28 ± 0.83 | 921.79 ± 0.83 | 916.3 ± 0.83 | 910.81 ± 0.84 | 905.32 ± 0.84 | 899.84 ± 0.84 | 894.36 ± 0.85
x1 = 0.3528 | 938.34 ± 0.84 | 932.82 ± 0.83 | 927.31 ± 0.84 | 921.8 ± 0.84 | 916.28 ± 0.85 | 910.77 ± 0.85 | 905.26 ± 0.85
x1 = 0.4195 | 948.63 ± 0.85 | 943.09 ± 0.84 | 937.55 ± 0.84 | 932.01 ± 0.85 | 926.47 ± 0.85 | 920.94 ± 0.86 | 915.41 ± 0.86
x1 = 0.5037 | 961.65 ± 0.85 | 956.08 ± 0.85 | 950.51 ± 0.85 | 944.94 ± 0.85 | 939.38 ± 0.86 | 933.82 ± 0.86 | 928.26 ± 0.87
x1 = 0.58 | 973.48 ± 0.86 | 967.89 ± 0.85 | 962.3 ± 0.85 | 956.71 ± 0.86 | 951.12 ± 0.86 | 945.54 ± 0.87 | 939.96 ± 0.87
x1 = 0.6504 | 984.43 ± 0.86 | 978.82 ± 0.85 | 973.21 ± 0.86 | 967.6 ± 0.86 | 962 ± 0.87 | 956.4 ± 0.87 | 950.8 ± 0.87
x1 = 0.7197 | 995.23 ± 0.86 | 989.61 ± 0.86 | 983.99 ± 0.86 | 978.37 ± 0.87 | 972.75 ± 0.87 | 967.13 ± 0.87 | 961.52 ± 0.88
x1 = 0.7822 | 1005 ± 0.87 | 999.37 ± 0.86 | 993.74 ± 0.86 | 988.11 ± 0.87 | 982.48 ± 0.87 | 976.85 ± 0.88 | 971.23 ± 0.88
x1 = 0.8561 | 1016.58 ± 0.87 | 1010.94 ± 0.86 | 1005.3 ± 0.87 | 999.66 ± 0.87 | 994.02 ± 0.88 | 988.39 ± 0.88 | 982.76 ± 0.88
x1 = 0.9287 | 1027.99 ± 0.87 | 1022.35 ± 0.86 | 1016.71 ± 0.87 | 1011.07 ± 0.87 | 1005.43 ± 0.88 | 999.79 ± 0.88 | 994.15 ± 0.89
x1 = 1 | 1039.23 ± 0.87 | 1033.59 ± 0.87 | 1027.95 ± 0.87 | 1022.32 ± 0.88 | 1016.68 ± 0.88 | 1011.05 ± 0.89 | 1005.42 ± 0.89

Cc1ccc(C)cc1 [1,4-dimethylbenzene] + C1COCCO1
mass density [kg/m3]
Conditions | 288.15 K | 293.15 K | 298.15 K | 303.15 K | 308.15 K | 313.15 K | 318.15 K
x2 = 0 | 865.52 ± 0.67 | 861.17 ± 0.67 | 856.82 ± 0.67 | 852.47 ± 0.68 | 848.12 ± 0.68 | 843.77 ± 0.69 | 839.42 ± 0.7
x2 = 0.0716 | 874.09 ± 0.71 | 869.64 ± 0.68 | 865.2 ± 0.69 | 860.76 ± 0.69 | 856.32 ± 0.7 | 851.88 ± 0.7 | 847.44 ± 0.69
x2 = 0.1445 | 883.22 ± 0.72 | 878.69 ± 0.7 | 874.16 ± 0.7 | 869.64 ± 0.7 | 865.12 ± 0.71 | 860.6 ± 0.72 | 856.08 ± 0.7
x2 = 0.2132 | 892.23 ± 0.73 | 887.63 ± 0.71 | 883.03 ± 0.71 | 878.43 ± 0.72 | 873.83 ± 0.72 | 869.23 ± 0.73 | 864.63 ± 0.71
x2 = 0.2871 | 902.41 ± 0.75 | 897.73 ± 0.72 | 893.05 ± 0.72 | 888.37 ± 0.73 | 883.69 ± 0.73 | 879.02 ± 0.74 | 874.35 ± 0.72
x2 = 0.3582 | 912.76 ± 0.77 | 908 ± 0.73 | 903.24 ± 0.74 | 898.49 ± 0.74 | 893.74 ± 0.75 | 888.99 ± 0.75 | 884.24 ± 0.73
x2 = 0.4358 | 924.73 ± 0.78 | 919.88 ± 0.75 | 915.03 ± 0.75 | 910.19 ± 0.76 | 905.35 ± 0.76 | 900.51 ± 0.77 | 895.67 ± 0.75
x2 = 0.5042 | 935.9 ± 0.8 | 930.97 ± 0.76 | 926.04 ± 0.76 | 921.12 ± 0.77 | 916.2 ± 0.77 | 911.28 ± 0.78 | 906.36 ± 0.76
x2 = 0.5846 | 949.87 ± 0.82 | 944.84 ± 0.78 | 939.81 ± 0.78 | 934.78 ± 0.78 | 929.76 ± 0.79 | 924.74 ± 0.79 | 919.72 ± 0.77
x2 = 0.6543 | 962.76 ± 0.83 | 957.63 ± 0.79 | 952.5 ± 0.79 | 947.38 ± 0.8 | 942.26 ± 0.8 | 937.14 ± 0.81 | 932.02 ± 0.78
x2 = 0.7249 | 976.61 ± 0.85 | 971.38 ± 0.8 | 966.15 ± 0.81 | 960.92 ± 0.81 | 955.69 ± 0.82 | 950.46 ± 0.82 | 945.23 ± 0.8
x2 = 0.7923 | 990.62 ± 0.87 | 985.27 ± 0.82 | 979.92 ± 0.83 | 974.58 ± 0.83 | 969.25 ± 0.83 | 963.92 ± 0.84 | 958.59 ± 0.81
x2 = 0.8623 | 1006.05 ± 0.88 | 1000.6 ± 0.84 | 995.15 ± 0.84 | 989.7 ± 0.85 | 984.25 ± 0.85 | 978.8 ± 0.86 | 973.35 ± 0.82
x2 = 0.9311 | 1022.14 ± 0.9 | 1016.58 ± 0.85 | 1011.03 ± 0.86 | 1005.48 ± 0.86 | 999.93 ± 0.87 | 994.38 ± 0.87 | 988.83 ± 0.83
